Source: patent EP1981504B1, “THIADIAZOLE DERIVATIVES FOR THE TREATMENT OF NEURO DEGENERATIVE DISEASES” (NV reMYND, priority 2006, dated 2007)
In brackets after ≈: the same amount, converted by molar mass.

Test system: M17-SYNwt cells
Test: α-synuclein cytotoxicity assay (LDH leakage from paraquat-treated α-synuclein over-expressing neuroblastoma cells)
Format: cell-based, human
Conditions: paraquat 32 mM, 40 hours, LDH release; for %I: percent inhibition of synuclein cytotoxicity at most effective concentration of test compound, relative to untreated paraquat cells; for EC50: Homo sapiens, Neuroblastoma cell, 10 point curves in duplicate
Description: Subsequently, LDH activity was determined using Promega Cytotox 96 NonRadioactive cytotoxicity assay, (Cat. G1780) according the supplier's instructions.
This corresponds to the following equation: (LDHreleaseoftreatedparaquatcellsatnon-effectiveconcentrationoftestcmpd)−(LDHreleaseoftreatedparaquatcellsatmosteffectiveconcentrationoftestcmpd)/(LDHreleaseofuntreatedparaquatcells)−(LDHreleasecontrolcells)*100% [formula]
1,2,4-thiadazole compounds made according to the methods described herein were screened for activity using the α-synuclein cytotoxicity assay as described above. Dose responses were carried out on all compounds found to be active (10 point curves in duplicate).

SMILES	%I	EC50
Cc1ccc(Cc2nsc(N3CCN(S(=O)(=O)c4ccc(Br)cc4)CC3)n2)cc1 [Compound 64, 1-[4-bromophenylsulfonyl]-4-[3-(4-methylbenzyl)-1,2,4-thiadiazol-5-yl]piperazine]	58%	–
Cc1ccc(Cc2nsc(N3CCN(S(=O)(=O)c4ccc5ccccc5c4)CC3)n2)cc1 [Compound 65, 1-[2-naphtylsulfonyl]-4-[3-(4-methylbenzyl)-1,2,4-thiadiazol-5-yl]piperazine]	78%	0.0393 µg/mL (≈ 0.0845 µM)
Cc1ccc(Cc2nsc(N3CCN(S(=O)(=O)c4ccc(Cl)cc4)CC3)n2)cc1 [Compound 66, 1-[4-chlorophenylsulfonyl]-4-[3-(4-methylbenzyl)-1,2,4-thiadiazol-5-yl]piperazine]	81%	–
Cc1ccc(Cc2nsc(N3CCN(S(=O)(=O)c4ccc(C(C)(C)C)cc4)CC3)n2)cc1 [Compound 67, 1-[4-tert-butylphenylsulfonyl]-4-[3-(4-methylbenzyl)-1,2,4-thiadiazol-5-yl]piperazine]	41%	–
COc1ccc(S(=O)(=O)N2CCN(c3nc(Cc4ccc(C)cc4)ns3)CC2)cc1 [Compound 68, 1-[4-methoxyphenylsulfonyl]-4-[3-(4-methylbenzyl)-1,2,4-thiadiazol-5-yl]piperazine]	53%	0.000255 µg/mL (≈ 0.000574 µM)
CC(C)(C)c1ccc(S(=O)(=O)N2CCN(c3nc(Cc4ccc(Cl)cc4)ns3)CC2)cc1 [Compound 69, 1-[4-tert-butylphenylsulfonyl]-4-[3-(4-chlorobenzyl)-1,2,4-thiadiazol-5-yl]piperazine]	31%	–
Cc1ccc(Cc2nsc(N3CCN(S(=O)(=O)c4cccc5cccnc45)CC3)n2)cc1 [Compound 70, 1-[quinoline-8-sulfonyl]-4-[3-(4-methylbenzyl)-1,2,4-thiadiazol-5-yl]piperazine]	44%	–
Cc1ccc(Cc2nsc(N3CCN(S(=O)(=O)c4ccc([N+](=O)[O-])cc4)C(C)C3)n2)cc1 (stereo not drawn) [Compound 71, 1-[4-nitrophenylsulfonyl]-4-[3-(4-methylbenzyl)-1,2,4-thiadiazol-5-yl]-2-methylpiperazine]	33%	–
CC1CN(c2nc(Cc3ccc(F)cc3)ns2)CCN1S(=O)(=O)c1ccc([N+](=O)[O-])cc1 (stereo not drawn) [Compound 73, 1-[4-nitrophenylsulfonyl]-4-[3-(4-fluorobenzyl)-1,2,4-thiadiazol-5-yl]-2-methylpiperazine]	33%	–
O=S(=O)(Cc1ccccc1)N1CCN(c2nc(Cc3ccc(Cl)cc3)ns2)CC1 [Compound 76, 1-(benzylsulfonyl)-4-[3-(4-chlorobenzyl)-1,2,4-thiadiazol-5-yl]piperazine]	40%	–
Cc1ccc(Cc2nsc(N3CCN(S(=O)(=O)Cc4ccccc4)CC3)n2)cc1 [Compound 77, 1-(benzylsulfonyl)-4-[3-(4-methylbenzyl)-1,2,4-thiadiazol-5-yl]piperazine]	81%	–
CCCCS(=O)(=O)N1CCN(c2nc(Cc3ccc(Cl)cc3)ns2)CC1 [Compound 81, 1-(butylsulfonyl)-4-[3-(4-chlorobenzyl)-1,2,4-thiadiazol-5-yl]piperazine]	80%	0.35 µg/mL (≈ 0.843 µM)
CCCCCCCCS(=O)(=O)N1CCN(c2nc(Cc3ccc(C)cc3)ns2)CC1 [Compound 82, 1-(octylsulfonyl)-4-[3-(4-methylbenzyl)-1,2,4-thiadiazol-5-yl]piperazine]	50%	1.58 µg/mL (≈ 3.51 µM)
CCCCS(=O)(=O)N1CCN(c2nc(Cc3ccc(C)cc3)ns2)CC1 [Compound 83, 1-(butylsulfonyl)-4-[3-(4-methylbenzyl)-1,2,4-thiadiazol-5-yl]piperazine]	36%	2.64 µg/mL (≈ 6.69 µM)
CCS(=O)(=O)N1CCN(c2nc(Cc3ccc(Cl)cc3)ns2)CC1 [Compound 84, 1-(ethylsulfonyl)-4-[3-(4-chlorobenzyl)-1,2,4-thiadiazol-5-yl]piperazine]	53%	3.48 µg/mL (≈ 8.99 µM)
Cc1ccc(Cc2nsc(N3CCN(S(=O)(=O)C(C)C)CC3)n2)cc1 [Compound 85, 1-(isopropylsulfonyl)-4-[3-(4-methylbenzyl)-1,2,4-thiadiazol-5-yl]piperazine]	69%	3.65 µg/mL (≈ 9.59 µM)
CC1CN(c2nc(Cc3ccc(Cl)cc3)ns2)CCN1C(=O)/C=C/c1ccccc1 (stereo not drawn) [Compound 86, 1-[(2E)-3-phenylprop-2-enoyl]-4-[3-(4-chlorobenzyl)-1,2,4-thiadiazol-5-yl]-2-methylpiperazine]	81%	1.13 µg/mL (≈ 2.57 µM)
CC1CN(c2nc(Cc3ccc(F)cc3)ns2)CCN1C(=O)/C=C/c1ccccc1 (stereo not drawn) [Compound 87, 1-[(2E)-3-phenylprop-2-enoyl]-4-B103-2-methylpiperazine]	94%	2.49 µg/mL (≈ 5.89 µM)

SMILES	%I	EC50
O=C(/C=C/c1ccccc1)N1CCN(c2nc(Cc3ccc(Cl)cc3)ns2)CC1 [Compound 88, 1-[(2E)-3-phenylprop-2-enoyl]-4-[3-(4-chlorobenzyl)-1,2,4-thiadiazol-5-yl]piperazine]	72%	–
CC1CN(c2nc(Cc3ccc(F)cc3)ns2)CCN1C(=O)CCc1ccccc1 (stereo not drawn) [Compound 89, 1-(3-phenylpropanoyl)-4-[3-(4-fluorobenzyl)-1,2,4-thiadiazol-5-yl]-2-methylpiperazine]	86%	0.6 µg/mL (≈ 1.41 µM)
O=C(CCc1ccccc1)N1CCN(c2nc(Cc3ccc(F)cc3)ns2)CC1 [Compound 90, 1-(3-phenylpropanoyl)-4-[3-(4-fluorobenzyl)-1,2,4-thiadiazol-5-yl]piperazine]	73%	1.41 µg/mL (≈ 3.43 µM)
Cc1ccc(Cc2nsc(N3CCN(C/C=C/c4ccccc4)CC3)n2)cc1 [Compound 91, 1-[3-phenylprop-2-enyl]-4-[3-(4-methylbenzyl)-1,2,4-thiadiazol-5-yl]piperazine]	90%	0.71 µg/mL (≈ 1.82 µM)
Clc1ccc(Cc2nsc(N3CCN(C/C=C/c4ccccc4)CC3)n2)cc1 [Compound 92, 1-[3-phenylprop-2-enyl]-4-[3-(4-chlorobenzyl)-1,2,4-thiadiazol-5-yl]piperazine]	69%	0.75 µg/mL (≈ 1.82 µM)
Fc1ccc(Cc2nsc(N3CCN(C/C=C/c4ccccc4)CC3)n2)cc1 [Compound 93, 1-[3-phenylprop-2-enyl]-4-[3-(4-fluorobenzyl)-1,2,4-thiadiazol-5-yl]piperazine]	91%	1.99 µg/mL (≈ 5.04 µM)
CCCCCc1ccc(C(=O)NCCN2CCN(c3nc(Cc4ccc(F)cc4)ns3)CC2)cc1 [Compound 94, 4-pentyl-N-{2-[4-[3-(4-fluorobenzyl)-1,2,4-thiadiazol-5-yl]piperazin-1-yl]ethyl}benzamide]	90%	0.35 µg/mL (≈ 0.706 µM)
CCCCc1ccc(C(=O)NCCN2CCN(c3nc(Cc4ccc(F)cc4)ns3)CC2)cc1 [Compound 95, 4-butyl-N-{2-[4-[3-(4-fluorobenzyl)-1,2,4-thiadiazol-5-yl]piperazin-1-yl]ethyl}benzamide]	78%	0.38 µg/mL (≈ 0.789 µM)
CCCCCCc1ccc(C(=O)NCCN2CCN(c3nc(Cc4ccc(F)cc4)ns3)CC2)cc1 [Compound 96, 4-hexyl-N-{2-[4-[3-(4-fluorobenzyl)-1,2,4-thiadiazol-5-yl]piperazin-1-yl]ethyl}benzamide]	72%	0.8 µg/mL (≈ 1.57 µM)
O=C(NCCN1CCN(c2nc(Cc3ccc(F)cc3)ns2)CC1)c1ccc(Cl)cc1 [Compound 97, 4-chloro-N-{2-[4-[3-(4-fluorobenzyl)-1,2,4-thiadiazol-5-yl]piperazin-1-yl]ethyl}benzamide]	68%	1.29 µg/mL (≈ 2.8 µM)
O=C(NCCN1CCN(c2nc(Cc3ccc(F)cc3)ns2)CC1)c1cc(Cl)cc(Cl)c1 [Compound 98, 3,5-dichloro-N-{2-[4-[3-(4-fluorobenzyl)-1,2,4-thiadiazol-5-yl]piperazin-1-yl]ethyl}benzamide]	102%	1.42 µg/mL (≈ 2.87 µM)
Cc1ccccc1C(=O)NCCN1CCN(c2nc(Cc3ccc(F)cc3)ns2)CC1 [Compound 99, 2-methyl-N-{2-[4-[3-(4-fluorobenzyl)-1,2,4-thiadiazol-5-yl]piperazin-1-yl]ethyl}benzamide]	97%	1.58 µg/mL (≈ 3.59 µM)
O=C(NCCN1CCN(c2nc(Cc3ccc(Cl)cc3)ns2)CC1)c1cccc(F)c1 [Compound 100, 3-fluoro-N-(2-[4-[3-(4-chlorobenzyl)-1,2,4-thiadiazof-5-yl]piperazin-1-yl]ethyl)benzamide]	75%	1.79 µg/mL (≈ 3.89 µM)
Cc1ccc(C(=O)NCCN2CCN(c3nc(Cc4ccc(F)cc4)ns3)CC2)cc1 [Compound 101, 4-methyl-N-{2-[4-[3-(4-fluorobenzyl)-1,2,4-thiadiazol-5-yl]piperazin-1-yl]ethyl}benzamide]	68%	1.94 µg/mL (≈ 4.41 µM)
O=C(NCCN1CCN(c2nc(Cc3ccc(F)cc3)ns2)CC1)c1ccc(F)cc1 [Compound 102, 4-fluoro-N-{2-[4-[3-(4-fluorobenzyl)-1,2,4-thiadiazol-5-yl]piperazin-1-yl]ethyl}benzamide]	80%	1.99 µg/mL (≈ 4.49 µM)
CCc1ccc(C(=O)NCCN2CCN(c3nc(Cc4ccc(F)cc4)ns3)CC2)cc1 [Compound 103, 4-ethyl-N-{2-[4-[3-(4-fluorobenzyl)-1,2,4-thiadiazol-5-yl]piperazin-1-yl]ethyl}benzamide]	139%	2.32 µg/mL (≈ 5.11 µM)
O=C(NCCN1CCN(c2nc(Cc3ccc(F)cc3)ns2)CC1)c1ccccc1 [Compound 104, N-{2-[4-[3-(4-fluorobenzyl)-1,2,4-thiadiazol-5-yl]piperazin-1-yl]ethyl}benzamide]	65%	3.82 µg/mL (≈ 8.98 µM)
